We go through six compounds from publication PMC10745054, “A Synthetic Model of the Mucosa for Oral Penetration Studies” (Membranes, 2023).

The conditions of series [1]: cited from earlier work.
Series [2] can be described thus: In vitro permeation through porcine skin, Franz diffusion cell. In kind it is in vitro ADME. As to conditions: after 4 h. The source says:
Three types of membranes were used in this study, a synthetic membrane and two biological membranes, porcine skin and porcine sublingual oral mucosa. […] The biological membranes were a porcine sublingual mucosa and porcine skin. The porcine tongues with sublingual mucosa were supplied by the Faculty of Pharmacy of the University of Barcelona from the Hospital de Bellvitge campus according to the protocols of the ethics committee and with the supervision of the above institution. The mucous membrane was dermatomed to a thickness of 500–700 µm (Dermatome GA630, Aesculap, Tuttlingen, Germany), and portions of the sublingual oral mucosa were obtained to fit in the Franz diffusion cells. In addition, to determine the specific thickness, each mucosal portion was measured with a digital micrometer (MAHR, Göttingen, Germany). […]
(§1) Next, a pseudoinfinite dose (300 µL) of the drug or biocidal solution was applied to each Franz cell. […] The permeation of three biocides, Fungitrol (FUN), propiconazole (PRO), and permethrin (PER), was also determined. […]
The release of each compound was evaluated by determining the cumulative amount permeated (Qn, μg/cm^2), which corresponds to the cumulative amount of the substance quantified in the receiving liquid per unit of surface area of the applied sample [31]. […]

Series [3] in a line: In vitro permeation through porcine sublingual mucosa (intact or modified by formulation), Franz diffusion cell. In kind it is in vitro ADME. An excerpt: (§2) Three types of membranes were used in this study, a synthetic membrane and two biological membranes, porcine skin and porcine sublingual oral mucosa. […] The biological membranes were a porcine sublingual mucosa and porcine skin. The porcine tongues with sublingual mucosa were supplied by the Faculty of Pharmacy of the University of Barcelona from the Hospital de Bellvitge campus according to the protocols of the ethics committee and with the supervision of the above institution. The mucous membrane was dermatomed to a thickness of 500–700 µm (Dermatome GA630, Aesculap, Tuttlingen, Germany), and portions of the sublingual oral mucosa were obtained to fit in the Franz diffusion cells. In addition, to determine the specific thickness, each mucosal portion was measured with a digital micrometer (MAHR, Göttingen, Germany). Porcine skin was obtained from the unboiled back of a Landrace large white pig (3 months old, weight around 40 kg) (supplied by the Department of Cardiology of the Clinic Hospital of Barcelona). Animal handling was approved by the Institutional Review Board and Ethics Committee of Institut d’Investigacions Biomèdiques August Pi i Sunyer (IDIBAPS), and the management of the animals conformed to the Guide for the Care and Use of Laboratory Animals. Porcine skin was dermatomed to a thickness of 500 ± 50 µm (Dermatome GA630, Aesculap, Germany) and stored at −20 °C until further use.
The Nuclepore synthetic membrane, sublingual mucosa, and porcine skin dermatomed to a thickness of 500–700 µm were used to evaluate the permeation of drug/biocidal compounds. These studies were performed using a Franz vertical diffusion cell (Lara Spiral, Couternon, France) as described before. The receiving fluid (RF) used was PBS:EtOH (1:1) for drug permeation and EtOH:H2O (75:25) for biocide permeation, assuring sink conditions of the compounds.
Next, a pseudoinfinite dose (300 µL) of the drug or biocidal solution was applied to each Franz cell. Solutions were applied in triplicate to determine the kinetic parameters. […] The permeation of three biocides, Fungitrol (FUN), propiconazole (PRO), and permethrin (PER), was also determined. The biocides were dissolved in ethanol, each at a concentration of 1%.
Samples (0.2 mL) were collected at different times (0 h, 0.5 h, 1 h, 2 h, and 4 h), and the same volume of receptor fluid was immediately added back for replacement.
(§3) The release of each compound was evaluated by determining the cumulative amount permeated (Qn, μg/cm^2), which corresponds to the cumulative amount of the substance quantified in the receiving liquid per unit of surface area of the applied sample [31].
(§4) The experimental Qn and % compound release data were used to construct graphs showing permeation over time. […] The model was determined with the nonlinear regression software STATGRAPHICS plus 5 (Statgraphics Technologies, Inc., The Plains, VA, USA), and the best equation was selected based on the highest correlation coefficient corrected for the number of degrees of freedom (R^2 DoFs).
Parameters were obtained from the graph. Fluxes (J, μg/cm^2/h) from the tested compounds were calculated from the slope of the linear portion of the cumulative amounts permeated through the membrane per unit surface area versus time plot. The permeability coefficients (Kp, cm/h) were obtained by dividing the J by the initial drug/biocide concentration. And Cmax represented the maxima concentration permeated for each active substance.
As in the previous TMWL assay, dermatomed porcine sublingual mucosa and split skin at a thickness of 500–700 µm as well as the synthetic Nuclepore membrane were used in this study.

Series [4] in a line: In vitro permeation through Nuclepore synthetic membrane (intact or modified by formulation), Franz diffusion cell. In kind it is in vitro ADME. As to conditions: for percent permeation: at 4 h.
Text: as §2
The Nuclepore synthetic membrane, sublingual mucosa, and porcine skin dermatomed to a thickness of 500–700 µm were used to evaluate the permeation of drug/biocidal compounds. These studies were performed using a Franz vertical diffusion cell (Lara Spiral, Couternon, France) as described before. […]
as §1, §3, §4
Parameters were obtained from the graph. Fluxes (J, μg/cm^2/h) from the tested compounds were calculated from the slope of the linear portion of the cumulative amounts permeated through the membrane per unit surface area versus time plot. […]

As to `O=C(c1ccccc1)c1ccc2n1CCC2C(=O)O` (centres unmarked) [Ketorolac tromethamine, ketorolac tromethamine], in series [1], the “Log Ko/w (pH 7.4)” value is 2.3 [39].

For `Cn1c(=O)c2c(ncn2C)n(C)c1=O` [Caffeine], the percent permeation entry in series [2] was “approximately 10%”; in series [3] (mucosa modified with formulation 6 (MUC F6), at 4 h), 60%; in series [3] (mucosa modified with hydrophobic formulation 3 (MUC F3), at 4 h), “approximately 10%”; in series [3] (mucosa modified with liposomal formulation 16 (printed MUC F6), at 4 h), “approximately 10%”; in series [4] (Nuclepore modified with formulation 6 (NP F6)), 65%; in series [4] (Nuclepore modified with hydrophobic formulation 3 (NP F3)), 40%. Moreover, the percent permeation in series [4] (Nuclepore modified with liposomal formulation 16 (printed NP F6)) is on record as 40%. The “Permeability Coef. Kp” value is on record as 8.3 ± 2.5 10^−3 cm/h in series [3] (MUCOSA F3: mucosa modified with formulation 3), 49.3 ± 0.1 10^−3 cm/h in series [3] (MUCOSA F6: mucosa modified with formulation 6) and 6.4 ± 0.9 10^−3 cm/h in series [3] (MUCOSA F16: mucosa modified with formulation 16). For the same compound, the “percent permeation (release)” value in series [3] (sublingual mucosa (MUC), at 4 h) was determined as 40%. Moreover, the maximum permeation in series [4] (Nuclepore membrane (NP), between 0.5 and 4 h) came out at 50%.

As to Fungitrol, in series [1], the “Log Ko/w (pH 7.4)” value is 2.4 [42].

Take `C[C@@H]1C[C@H]2[C@@H]3CCC4=CC(=O)C=C[C@]4(C)[C@@]3(F)[C@@H](O)C[C@]2(C)[C@@]1(O)C(=O)CO` [Dexametasone, dexamethasone]: the “Log Ko/w (pH 7.4)” value in series [1] is 1.8 [40].

As for `CCCC1COC(Cn2cncn2)(c2ccc(Cl)cc2Cl)O1` (centres unmarked) [Propiconazole, propiconazole], the “Log Ko/w (pH 7.4)” value in series [1] was 3.5 [43].

As to `CC1(C)C(C=C(Cl)Cl)C1C(=O)OCc1cccc(Oc2ccccc2)c1` (centres unmarked) [Permethrin, permethrin], the “Log Ko/w (pH 7.4)” value in series [1] was 6.5 [44].
